One compound from patent US7781423B2, “Compounds to promote regeneration of bone marrow” (priority 2007, dated 2010) can be followed below.

Like-named read-outs stand apart in the source and are kept apart here.

Data set [1] concerns human bone marrow-derived mesenchymal stem cells. The data set can be described thus: Proliferation of mesenchymal stem cells in the presence of 2% serum (viable cell number). It is filed as cell-based. To be noted: 10 μM or 50 μM. Here is the method: Bone marrow aspirates were taken from normal adult donors after an informed consent was signed. Bone marrow mesenchymal stem cells were prepared by a widely used technique as described earlier by others. Pittenger, M. F., Mackay, A. M., Beck, S. C., Jaiswal, R. K., Douglas, R., Mosca, J. D., Moorman, M. A., Simonetti, D. W., Craig, S. and Marshak, D. R., “Multilineage potential of adult human mesenchymal stem cells,” Science, 284, 143-147 (1999). […] When cells grew to about 80% confluence, they were suspended and harvested by incubating with a ready-made solution containing 0.25% trypsin and 1 mM EDTA (Sigma-Aldrich, St. Louis, Mo.) for 5 minutes at 37° C.; this cell suspension is designated as passage 1. […]
The total numbers of nucleated and viable cells were determined with a hemocytometer, using Turck's solution and trypan blue stain, respectively. […]
In the experiments reported in Table 7 and Table 8, human bone marrow-derived mesenchymal stem cells were split at 1:3 and then incubated for 24 hours in 10% fetal calf serum-containing medium to about 30-35% confluence. […] The data are expressed as mean values±std. dev. of 3 determinations.

Another data set in a line: MTT cell viability assay. Type of data set: cell-based. To be noted: human, read-out: decrease of viability. Here is the method:
(§1) The NIH 3T3 (normal) mouse fibroblast, A431 human epidermoid adenocarcinoma, and MCF-7 human breast cancer cells were cultured in DMEM medium containing 10% FBS. The MEL-28 human melanoma cells were cultured in MEM medium containing 10% FBS. The HT-29 human colon adenocarcinoma cells were cultured in McCoy's 5a medium containing 10% FBS. The A549 human lung carcinoma cells were maintained in Ham's F12K medium containing 10% FBS. T47D cells were cultured in 12-well plates in RPMI 1640 medium supplemented with 0.2 IU bovine insulin and 10% FBS. CaOV-3 human ovarian cancer cells were cultured in DMEM containing 10% FBS. ZR-75-1 human estrogen receptor-positive breast cancer cells were maintained in RPMI 1640 medium supplemented with 10% FBS. HTB-157 human fetal fibroblasts, MEL-24 human malignant melanoma cells, Hep G2 human hepatoblastoma cells, and CaCO-2 human colon adenocarcinoma cells were maintained in Eagles's MEM containing 10% FBS. MB-231 human estrogen receptor-negative breast cancer cells were maintained in Leibovitz's L-15 medium supplemented with 10% FBS.
In the actual experiments, cells were seeded into 96-well plates and cultivated up to either ˜70-90% confluency (survival experiments) or 20-25% confluency (proliferation experiments). Then the medium was changed for serum-free medium (survival experiment) or 2% serum-containing medium (proliferation experiment). The incubation continued for 72 hours followed by the MTT assay to determine cell viability. This calorimetric assay is based on the ability of living cells, but not dead cells, to reduce 3-(4,5-dimethyl thiazol-2-yl)-2,5-diphenyltetrazolium bromide. Carmichael, J, De Graff, W. G., Gazdar, A. F., Minna, J. D. and Mitchell, J. B., “Evaluation of tetrazolium-based semiautomated calorimetric assay: Assessment of chemosensitivity testing,” Cancer Res., 47, 936-942 (1987).

For data set [2], the system named is NIH 3T3, A431, MCF-7, MEL-28, HT-29, A549, T47D, CaOV-3, ZR-75-1, HTB-157, MEL-24, Hep G2, CaCO-2, MB-231 cells. The data set can be described thus: MTT survival/proliferation experiments on the panel of normal and cancer cells. To be noted: serum-free (survival) or 2% serum (proliferation); 72 hours; lower and higher (50 μM) concentration. Type of data set: cell-based, human, mouse. The method, then: as §1
In the actual experiments, cells were seeded into 96-well plates and cultivated up to either ˜70-90% confluency (survival experiments) or 20-25% confluency (proliferation experiments). Then the medium was changed for serum-free medium (survival experiment) or 2% serum-containing medium (proliferation experiment). […]

`Cc1c(OCC(O)C[N+](C)(C)C)cc2c(=O)c3ccccc3sc2c1C.[Cl-]` (stereo not drawn) [CCcompound1, [3-(3,4-Dimethyl-9-oxo-9H-thioxanthen-2-yloxy)-2-hydroxypropyl]trimethyl-ammonium chloride]: in data set [1], the “effect on the proliferation of stem cells” value was “no direct stimulatory effect”. The cytotoxicity at 72 h, 50 μM in the data set “MTT cell viability assay” (CaOV-3 ovarian cancer cells), in the data set “MTT cell viability assay” (Hep G2 hepatoblastoma cells), in the data set “MTT cell viability assay” (MEL-28 melanoma cells) and in the data set “MTT cell viability assay” (ZR-75-1 estrogen receptor-positive breast cancer cells) was 20 to 40% each time. The “enhancement of survival or proliferation” value in data set [2] is given as “Neither the lower nor the higher concentration of CCompound1 enhanced the survival or proliferation”.
